Experimental findings from patent US5091397A (priority 1988, dated 1992) are described below.

In test [1] the target is muscarinic receptors. Nature of the test: Radio ligand binding: displacement of the muscarinic agonist 3H-Oxotremorine-M (3H-OXO-M) from cerebral cortex membranes. The settings on record: displacement of muscarinic agonist 3H-OXO-M (2nM), rat cerebral cortex, 2mM magnesium chloride, 37° C., 30 min. Set-up: species or system Hooded Lister rats.
For test [2], the target named is muscarinic receptors. Type of test: binding, Hooded Lister rats. Particulars: displacement of muscarinic antagonist 3H-QNB (0.27nM), rat cerebral cortex, 37° C., 30 min.

Counter-ions that a name gives are not always drawn. Like-named read-outs stand apart in the source and are kept apart here.

One may read the IC50 as the concentration needed to halve the response being measured. As to `Cc1noc(CC2CN3CCC2CC3)n1` (racemic) [Example E2, (±) 3-[(3-Methyl-1,2,4-oxadiazol-5-yl)methyl]-1-azabicyclo[2.2.2]octane hydrochloride salt], the IC50 in test [1] was 1050 nM; in test [2], 13000 nM.

`c1coc(C[C@H]2CN3CC[C@@H]2C3)n1` (relative stereo) [Example E7, (±) endo 3-(1,3-Oxazol-2-yl)methyl]-1-azabicyclo[2.2.1]heptane oxalate salt]: the IC50 in test [1] was determined as 42 nM; in test [2], 8000 nM. The corresponding values for `Nc1noc(C[C@@H]2CN3CC[C@@H]2C3)n1` (relative stereo) [Example E1, (±) exo 3-[(3-Amino-1,2,4-oxadiazol-5-yl)methyl]-1-azabicyclo[2.2.1]heptane] are 36.5 nM and 7500 nM. `Nc1noc(C[C@@H]2C[C@@H]3CCN(C2)C3)n1` (relative stereo) [Example E9, (±) endo 3-[(3-Amino-1,2,4-oxadiazol-5-yl)methyl]-1-azabicyclo[3.2.1]octane]: the figures for the IC50 in test [1] and in test [2] were 925 nM and 4600 nM, respectively.

`c1coc(C[C@@H]2CN3CC[C@@H]2C3)n1` (relative stereo) [Example E10, (±) exo 3-(1,3-Oxazo1-2-yl)methyl-1-azabicyclo [2.2.1]heptane oxalate salt]: the values for the half-maximal inhibitory concentration (IC50) in test [1] and in test [2] were 38 nM and 5600 nM, respectively.

Regarding `c1coc(CC2CN3CCC2CC3)n1` (racemic) [Example E3, (±) 3-(1,3-Oxazol-2-yl)methyl]-1-azabicyclo[2.2.2]octane oxalate salt], the IC50 in test [1] worked out at 755 nM; in test [2] it was 7000 nM. Turning to `Cc1noc(C[C@H]2CN3CC[C@@H]2C3)n1` (relative stereo) [Example E6, (±) endo 3-(3-Methyl-1,2.4-oxadiazol-5-yl)methyl-1-azabicyclo[2.2.1]heptane oxalate salt], the IC50 in test [1] turned out to be 150 nM; in test [2] it was 10200 nM.

On to `Nc1noc(C[C@H]2CN3CC[C@@H]2C3)n1` (relative stereo) [Example E5, (±) endo 3-[(3-Amino-1,2,4-oxadiazol-5-yl)methyl]-1-azabicyclo[2.2.1]heptane], for which the IC50 was 32 nM in test [1] and 21000 nM in test [2]. In the same order, the values of `Nc1noc(CC23CCN(CC2)C3)n1` [Example E13, 4-[(3-Amino-1,2,4-oxadiazol-5-yl)methyl]-1-azabicyclo[2.2.1]heptane] are 118 nM and 85000 nM. With `c1ncc(C[C@H]2CN3CC[C@@H]2C3)o1` (relative stereo) [Example E8, (±) endo 3-(1,3-Oxazol-5-yl)methyl-1-azabicyclo[2.2.1]heptane hydrochloride salt], the half-maximal inhibitory concentration (IC50) in test [1] stood at 625 nM; in test [2], 38000 nM.

For `c1coc(CC23CCN(CC2)C3)n1` [Example E14, 4-[(1,3-Oxazol-2-yl)methyl]-1-azabicyclo[2.2.1]heptane oxalate salt], the values for the IC50 in test [1] and in test [2] were 410 nM and 74000 nM, respectively. As to `c1csc(CC2CN3CCC2CC3)n1` (racemic) [Example E17, (±) 3-((1,3-Thiazol-2-yl)methyl)-1-azabicyclo[2.2.2]octane oxalate salt], the IC50 in test [1] was determined as 875 nM.

On to `Nc1noc(CC23CCCN(CC2)C3)n1` (racemic) [Example E4, (±) 5-[(3-Amino-1,2,4-oxadiazol-5-yl)methyl]-1-azabicyclo[3.2.1]octane], for which the 50% inhibitory concentration (IC50) worked out at 580 nM in test [1] and 6700 nM in test [2].

Regarding `c1coc(CC23CCCN(CC2)C3)c1` (racemic) [Example E12, (±) 5-[(Fur-2-yl)methyl-1-azabicyclo[3.2.1]octane oxalate salt], the half-inhibitory concentration (IC50) in test [1] is 660 nM; in test [2], 4000 nM. With `Cc1nc(C[C@H]2CN3CC[C@@H]2C3)no1` (relative stereo) [Example E15, (±) endo 3-[(5-Methyl-1,2,4-oxadiazol-3-yl)methyl-1-azabicyclo[2.2.11]heptane hydrochloride salt], the 50% inhibitory concentration (IC50) in test [1] was 950 nM; in test [2] it was 30500 nM. Consider `Cc1nc(C[C@@H]2CN3CC[C@@H]2C3)no1` (relative stereo) [Example E16, (±) exo 3-[(5-Methyl-1,2,4-oxadiazol-3-yl)methyl)-1-azabicyclo[2.2.1]heptane hydrochloride salt], for which the IC50 in test [1] worked out at 1000 nM. For the compound `Cn1nnc(C[C@H]2CN3CC[C@@H]2C3)n1` (relative stereo) [Example E11, (±) endo 3-[(2-Methyltetrazol-5-yl)methyl]-1-azabicyclo[2.2.11]heptane oxalate salt], the IC50 in test [1] turned out to be 340 nM; in test [2], 8000 nM.
